Source: patent US10231979B2, “Modulation of inflammation using progesterone metabolites” (Indiana University Research and Technology Corporation, priority 2015, dated 2019)
Like-named read-outs stand apart in the source and are kept apart here. Each block holds one molecule with its values, some of them ahead of it.

Assays:
[1] = tested on: primary uterine smooth muscle cells (UtSMC); assay: IL-6 production in UtSMC stimulated with TNF-α; assay type: cell-based
Description: FIGS. 5A & 5B are graphs depicting the effect of progesterone metabolites 16αOHP and 6β-OHP on inflammation in primary uterine smooth muscle cells (UtSMC).

[2] = tested on: primary uterine smooth muscle cells (UtSMC); assay: IL-6 production in UtSMC stimulated with LPS; assay type: cell-based; settings: UtSMC pre-treated, then LPS
Method: In this Example, the effect of progesterone metabolites 16αOHP and 6β-OHP on inflammation in primary uterine smooth muscle cells (UtSMC) was analyzed.
UtSMC were cultured in the presence of DMSO and one of the following: (1) progesterone; (2) […]; (3) 6β-OHP; and (4) 16αOHP. Lipopolysaccharide (LPS) was then added to the culture to stimulate an immune inflammatory reaction. Experiments were performed in triplicate.

THP-1 monocyte cells = assay: Flow cytometry of monocyte-derived macrophage population (PMA differentiation); assay type: cell-based; settings: THP-1 pre-treated 24 hours, then PMA
Method: FIGS. 6A-6C depict flow cytometry of a monocyte-derived macrophage population pre-treated with progesterone metabolites. THP-1 monocyte cells were pre-treated with progesterone metabolites 16αOHP and 6β-OHP for 24 hours, then stimulated to differentiate to macrophages by exposure to PMA.
THP-1 monocyte cells were pre-treated with progesterone metabolites 16αOHP and 6β-OHP for 24 hours, then stimulated to differentiate to macrophages by exposure to phorbol 12-myristate 13-acetate (PMA).

[3] = tested on: uterine horns from wild-type (WT) C57BL/6J female mice; assay: Spontaneous uterine contractility, isolated uterine horns in tissue organ bath; settings: for IC50: spontaneous, dose-response 10^-9 to 10^-6 mol/L
Method: (§1) FIGS. 2A & 2B are representative contraction tracings of uterine horns from wild-type (WT) C57BL/6J female mice. FIG. 2A: Uterine horns were isolated and suspended in a tissue organ bath at 0.5 g of tension. Once equilibrated, selected progestin treatments were added in successively increasing concentrations from 10^−9 to 10^−6 mol/L in 20-minute intervals to assess effect on spontaneous contractile activity (progesterone treatment, bottom panel). The contralateral horn from each mouse was treated with a matching ethanol vehicle (top panel). All contraction responses were measured and reported as the area under the contraction curve (AUC), normalized to the AUC of the spontaneous contraction pattern that preceded treatment. FIG. 2B: Treatment effect on oxytocin-induced contractility was assessed by exposing horns to selected progestin treatments (10^−6 mol/L), followed by increasing doses of oxytocin (Oxt) (1, 10, 50, and 100 nmol/L) in 10-minute intervals (bottom panel). The contralateral horn from each mouse was treated with a matching ethanol vehicle (top panel). Contraction responses were measured and reported as described above.
(§2) All progestins were solubilized in ethanol and then diluted in phosphate-buffered saline to the desired molar concentration. […] The concentration of ethanol decreased parallel to the progestin dose in order to minimize the effect of the solvent on uterine contractility.
(§3) Virgin nonpregnant wild-type C57BL/6J female mice (Jackson Labs, Bar Harbor, Me.) were obtained at 10 to 12 weeks of age and fed a standard diet. Mice were euthanized by an IACUC-approved protocol, and each of the 2 uterine horns were removed. A 1 cm×0.5 cm segment of the uterine horn was suspended using 4-0 silk suture between a stainless steel wire hook connected to a Radnoti force displacement transducer (Radnoti LLC, Monrovia, Calif.) and a glass hook inside an organ bath that served as an anchor. The bath was filled with modified Krebs buffer (118 mmol/L NaCl, […], 1.2 mmol/L MgSO4, 1.2 mmol/L KH2PO4, 2.5 mmol/L CaCl2, 25 mmol/L NaHCO3, and 11 mmol/L glucose, pH 7.4), maintained at 37° C., and constantly bubbled with a premixed gas consisting of 20% O2, 5% CO2, and balance N2. Uterine horns were equilibrated at 0.5 g of tension for approximately 30 minutes until a spontaneous contraction pattern was established.
A total of 60 mice were utilized to assess the effect of the selected treatments on uterine contractility, 30 in the spontaneous contraction group and 30 in the oxytocin-induced group. Six mice were in each progestin treatment group during both spontaneous and oxytocin-induced contractility arms of the study. To determine the nongenomic (acute) effect of the progestin treatments on spontaneous uterine contractility, a segment of uterine horn from each mouse was exposed to a single progestin (progesterone, 17-OHPC, 2α-OHP, 6β-OHP, or 16αOHP), while a segment of the contralateral horn was exposed to a matching dose of ethanol vehicle. After a spontaneous contraction pattern was achieved, the progestin treatment was added to the tissue organ bath in successively increasing concentrations from 10^−9 to 10^−6 mol/L in 20-minute intervals. At the end of the treatments, the tissue was washed in modified Krebs buffer and then exposed to KCl (60 mmol/L) to elicit a tetanic response and confirm tissue viability.
Uterine contraction responses were recorded using LabChart Pro (ADInstruments, Colorado Springs, Colo.) software as the force generated with time (g×min). Baseline uterine contractility was calculated as the area under the curve (AUC) for a 10-minute period of spontaneous contractions. The AUC of the uterine contractile response to each treatment (progestin or oxytocin) was determined and expressed as a percentage of the baseline AUC observed during spontaneous contraction. […]

[4] = tested on: uterine horns from wild-type (WT) C57BL/6J female mice; assay: Oxytocin-induced uterine contractility after progestin pretreatment, isolated uterine horns in tissue organ bath; settings: for EC50: oxytocin-induced dose-response (1-100 nmol/L oxytocin) after progestin pretreatment 10^-6 mol/L
Method: as §1, §2, §3
To determine the nongenomic effect of progestin treatments on oxytocin-induced uterine contractility, the uterine horns were pretreated with a single progestin at 10^−6 mol/L for 10 minutes after a spontaneous contractile pattern was established. The contralateral horn from the same mouse was treated with ethanol vehicle at a matching concentration. The uterine horns were subsequently exposed to increasing concentrations of oxytocin (1, 10, 50, and 100 nmol/L) in 10-minute intervals. At the end of the oxytocin treatments, the tissue was washed and then exposed to KCl (60 mmol/L) to elicit a tetanic response and confirm tissue viability.
Uterine contraction responses were recorded using LabChart Pro (ADInstruments, Colorado Springs, Colo.) software as the force generated with time (g×min). Baseline uterine contractility was calculated as the area under the curve (AUC) for a 10-minute period of spontaneous contractions. The AUC of the uterine contractile response to each treatment (progestin or oxytocin) was determined and expressed as a percentage of the baseline AUC observed during spontaneous contraction. […] To account for repeated measurements for individual muscle strips at increasing treatment doses, a repeated measures 2-way analysis of variance model was used to compare the dose-response curves. Each dose-response curve was fit by nonlinear regression and compared using an extra sum of squares F test. The mean max-fit response was compared between each progestin and vehicle control to determine maximum treatment efficacy. […]

CYP3A [5] = tested on: CYP3A
THP-1 monocytes = assay: IL-6 production in THP-1 monocytes stimulated with LPS; assay type: cell-based; settings: THP-1 monocytes pretreated, then LPS; versus positive control
Method: FIG. 9 is a graph depicting the effect of progesterone and progesterone metabolites (16αOHP and 6β-OHP) on inflammation in THP-1 monocytes stimulated with LPS.
In this Example, the effect of progesterone and progesterone metabolites (16αOHP and 6β-OHP) on inflammation in THP-1 monocytes stimulated with LPS was analyzed.

CYP3A [6] = assay: CYP3A production of 16α-OHP and 6β-OHP in human liver microsomes (HLMs); settings: p<0.01
[7] = maximal oxytocin dose (100 nmol/L)
[8] = oxytocin-induced, progestin pretreatment 10^-6 mol/L, maximal oxytocin dose (100 nmol/L)

IC50 ([3]; read-out: Contractile Force IC50): 0.48 nM
IC50 ([3]; read-out: Contractile Frequency IC50): 4.1 nM
EC50 ([4]; read-out: Contractile Force EC50): 20.9 nM
EC50 ([4]; read-out: Contractile Frequency EC50): 12.8 nM
Production of metabolite in human liver microsomes (in words) (CYP3A [5]): favored
Compound: CC(=O)[C@H]1CC[C@H]2[C@@H]3C[C@@H](O)C4=CC(=O)CC[C@]4(C)[C@H]3CC[C@]12C [6β-OHP, 4-pregnen-6β-ol-3,20-dione]
IL-6 production (in words) [1]: decreased IL-6 production
IL-6 ([2]; LPS positive control 121.7 pg/mL): 125.4 pg/mL
IL-6, % of positive control ([2]; relative to DMSO+LPS positive control): 102%
Macrophage population/phenotype compared to DMSO treated control (in words) (THP-1 monocyte cells): decrease in the macrophage population/phenotype
Macrophages, % of the total population (THP-1 monocyte cells; DMSO control 77%): 52%
Spontaneous contractile force compared with the vehicle control (in words) ([3]; maximal treatment dose): No significant difference
Spontaneous uterine contraction frequency compared to vehicle control (in words) ([3]; maximal treatment dose): not significantly decreased
Contractile Frequency/10 min (% of baseline), Drug ([3]; spontaneous contractility, maximal treatment dose): 46.2% of baseline
Contractile Force (% of baseline), Drug ([3]; spontaneous contractility, maximal treatment dose, AUC as % of baseline AUC): 45% of baseline
Effect on oxytocin-induced uterine contractility (in words) [4]: increase
Oxytocin-induced contractile force compared to vehicle control (in words) [4, 7]: no differences
Oxytocin-induced contraction frequency compared to control (in words) [4, 7]: decreased significantly
Contractile Force (% of baseline), Drug [4, 8]: 267.6% of baseline
Contractile Frequency/10 min (% of baseline), Drug [4, 8]: 196.1% of baseline
Contractile Frequency/10 min (% of baseline), Drug ([4]; oxytocin-induced, progestin pretreatment 10^-6 mol/L, maximal oxytocin dose (100 nmol/L), listed as 6β-hydroxyprogesterone): 196 % of baseline
Inflammatory response (IL-6 production) (in words) (THP-1 monocytes): significantly decreased IL-6 production

Compound: CC(=O)N1CCN(c2ccc(OCC3COC(Cn4ccnc4)(c4ccc(Cl)cc4Cl)O3)cc2)CC1 (stereo not shown) [ketoconazole]
Effect on CYP3A production of 16α-OHP and 6β-OHP (CYP3A [6]): inhibited
